Entries after “also recorded” stand apart in the source; their conditions may differ.
What was measured:
[1] = system: Sprague-Dawley (SD) rats; test: Safety and toxicity of intranasal Midazolam via SipNose device; type: in vivo, rat
Experimental: Safety and possible adverse effects (toxicity) were assessed the safety and toxicity including adverse effects of Midazolam following intranasal administration via SipNose dedicated device to Sprague-Dawley (SD) rats.
A total of 78 SD rats (39 female and 39 male) were utilized. The animals were divided into four groups of 3 or 12 female rats and 3 or 12 male rats. At each of the times 6 hrs, 24 hrs, 7 days, and 14 days, three males and three females were sacrificed.
The test material was a commercially available injectable Midazolam.
The day of dosing was Day 1 and termination days were Day 1 (6 hrs), Day 2 (24 hrs), Day 8 and Day 15.
Each test material or vehicle dose was administrated to three female and three male rats at each of the above times. The administration was performed intranasally (IN) via a SipNose device. The dose volume was 25-125 μl per naris (50-250 μl total per rat). Dosing was performed in an escalating fashion, each increase in dose depending on the outcome of the previous dose. The time between increasing doses was approximately half an hour.
Dosing was performed in a staggered fashion, each increase in dose pending on the outcome of the previous dose. The lag time between the increasing doses was approximately half an hour. The maximum dose was five times the clinical dose in order to determine a maximum tolerated dose.
The test material and vehicle were administered IN once via a SipNose device at a dose volume of 50-250 μl to non-fasting animals.
Animals were observed individually at least once during the first 30 minutes alter dosing and daily thereafter, for a total of 1, 7, or 14 days (according to time of sacrifice for histological observation). All observations were systematically recorded and individual records were maintained for each animal.
Body weight was monitored one day after the animals' arrival, prior to administration of the test material and twice a week thereafter (days 4, 8, 10 and 15) for a total of 5 times.
Clinical signs were observed daily, at least once during the first 30 min after dosing, periodically during the first 24 h, with special attention during the first 4 h, and once daily thereafter.
Animals were sacrificed by carbon dioxide asphyxiation and gross pathology was performed examining the major tissue and organ systems. All animals were subjected to gross necropsy.
The tissue samples from groups 1, 2, 3 and 4 (M+F) were embedded, sectioned and mounted on slides. The tissue sections were stained with Hematoxylin & Eosin (H&E).
Three cross sections of the skull and brain were taken: (1) in the nose from rostral area, (2) behind the incisor teeth and (3) in the caudal area including the olfactory epithelium labyrinth (FIG. 85). The brain was dissected in the olfactory regions, hippocampus, cerebellum and brain stem. The lungs were evaluated in both right and left lobes. The inflammatory status in the tissue samples were evaluated using the following parameters.
• Grade 0: No inflammation • Grade 1: Mild (few inflammatory cells, 10-20 per ×40 high-power field) • Grade 2: moderate (more inflammatory cells, 20-50 per ×40 high-power field), • Grade 3: severe (many inflammatory cells, more than 50 per ×40 high-power field).

[2] = system: New Zealand White female rabbits; test: Nasal cavity irritation and general toxicity of repeated intra-nasal Midazolam
Experimental: Nasal cavity irritation and general toxicity were assessed for repeated intra-nasal applications of Midazolam to rabbits, using a SipNose intra-nasal delivery device. Six New Zealand White female rabbits were used, with the three experimental animals being given two 200 μL doses of Midazolam (5 mg/ml) per day, six hours apart. The three control animals were given four 200 μL doses of saline solution per day, at 3 hour intervals.
The daily dosing was repeated for 10 days, for 11 days' dosage in total. 24 hours after the last dosing, the animals were sacrificed.
The animals were observed once daily until study termination. Shortly before sacrifice, blood was taken for testing.
After sacrifice, gross pathology was performed, examining major tissue and organ systems. Organs (nasal cavity (including olfactory epithelium), nasopharynx, paranasal sinus, trachea, lungs, larynx, brain (olfactory bulbs and hippocampus), heart, olfactory nerve, optic nerve and lacrimal glands) of all animals were harvested and examined. Three cross sections of the skull were taken: (1) in the nose from rostral, (2) behind the incisor teeth and (3) caudal, including the olfactory epithelium labyrinth, as shown in FIG. 85.
Brains were dissected in the olfactory regions and the hippocampus. Lungs were evaluated in both right and left lobes. Tissues were trimmed, embedded in paraffin, sectioned at no more than 5 microns thickness, and stained with Hematoxylin & Eosin (H&E).
In order to alleviate the discomfort an animal might endure during intra-nasal administration, prior to placement the sipNose device, Lidocaine was applied locally in the nasal area.

[3] = system: patients; test: Midazolam pre-medication sedation (BIS EEG monitoring), 3 mg, SipNose vs commercial nasal pump; type: in vivo, human; conditions: for failures in inducing anesthesia: both comparisons pooled (3 mg and 1.4 mg)
Experimental: A comparison was made of the efficacy of delivery of the anesthetic Midazolam, when used for pre-medication, between an embodiment of the SipNose device of the present invention and a prior-art device, the commercial nasal pump based on positive displacement (as the pump used for Alrin™ delivery) and the MAD Nasal from Wolfe Tory.
Comparison with nasal pump (using 5 mg/ml solution): For a pre-medication procedure with commercial nasal pump (positive displacement pump), in order to achieve the desired dose of 3 mg Midazolam, the delivery device was inserted into a nostril and an aliquot of Midazolam is delivered. The delivery device is then inserted into the opposite nostril and a second aliquot of Midazolam is delivered. This is repeated twice more with a 30 s intervals between each cycle, for a total of six aliquots of Midazolam, three in each nostril. As opposed to that, for a SipNose device delivery, a single dose of 0.6 ml was delivered to one nostril.
In order to determine the efficacy of anesthetization a BIS EEG monitoring was used, where the BIS values for brain activity are calculated from the EEG activity. Awake, unsedated individuals typically have BIS values ≥97. Mildly sedated individuals typically have BIS values in the 80's, moderately sedated individuals typically have BIS values in the 70's, while fully sedated individuals typically have BIS values below about 70; BIS values between about 45 and about 60 are commonly used for general anesthesia during the maintenance phase of an operation.
Two comparisons were made between the commercial device and the present, SipNose, device. In the first, 3 mg of Midazolam was administered and the commercial device was a commercial nasal pump (positive displacement), in the second, 1.4 mg of Midazolam was administered and the commercial device was a MAD applicator.

[4] = commercial nasal pump, 3 mg Midazolam

How did the “death of neurons in the brain” value ([1]; SD rats, Midazolam treated groups) turn out when `Cc1ncc2n1-c1ccc(Cl)cc1C(c1ccccc1F)=NC2` [Midazolam] was run?
The value was “No death of neurons was detected”.

What about the “adverse effects or histopathological findings in examined tissues” value ([1]; SD rats, both tested doses (clinical dose and five times clinical dose)) of the same compound?
The value was “no adverse effects or histopathological findings; also recorded: no pathological abnormalities were found”.

What about the “very mild inflammation in most caudal cross section of the nose” value ([1]; SD rats, seen in saline and Midazolam groups, 12 out of 42 animals) of the same compound?
The value was “most probably not drug-related”.

And the clinical signs ([1]; SD rats, single intranasal dose via SipNose, up to 14 days)?
The clinical signs was “No abnormal clinical signs were detected”.

What about the “weight gain vs control group” value ([1]; female rats, five times the clinical dose, days 10 and 15) of the same compound?
Its value is “statistically significant greater weight gain”.

What about the “body weight increase vs control group” value ([1]; male rats, clinical dose of Midazolam, at several times) of the same compound?
Its value is “statistically significant greater increase in weight”.

And the “Amylase (blood chemistry)” value ([2]; Midazolam group)?
The value was 240±13.1 IU/L.

And the “all relevant safety parameters (clinical observations, histopathology, ophthalmic examination, haematology, blood analysis)” value ([2]; Midazolam vs control)?
Its value is “no differences were found between the control and study groups”.

And the blood coagulation parameters ([2]; Midazolam vs control group)?
Its blood coagulation parameters is “No differences were detected”.

And the histopathology ([2]; either group)?
Its histopathology is “No major histopathological abnormalities were found”.

And the “blood chemistry analysis, all results” value ([2]; repeated intra-nasal Midazolam)?
The value was “within the normal range for the blood of rabbits”.

What about the blood hematology analysis ([2]; repeated intra-nasal Midazolam vs saline control) of the same compound?
Its blood hematology analysis is “None of the parameters showed any difference between the control group and the study group”.

What about the “body weight during the study” value ([2]; two 200 μL doses of Midazolam (5 mg/ml) per day via SipNose, repeated daily) of the same compound?
Its value is “did not exhibit major changes in weight”.

And the “finding in frontal nose space” value ([2]; two animals from the Midazolam group, attributed to device tip)?
Its value is “very mild bleeding was detected in the frontal nose space”.

And the Adverse events ([3]; SipNose device, 3 mg Midazolam)?
The Adverse events was 0.

What about the “Level of minimum BIS” value ([3]; SipNose device, 3 mg Midazolam) of the same compound?
The value was 74.5±9.

What about the Mean onset time ([3]; SipNose device, 3 mg Midazolam) of the same compound?
The Mean onset time was 5.9 ± 4.6 min.

And the “level of Maximum BIS” value ([3]; SipNose device, 3 mg Midazolam)?
The value was 97.

And the “sleep score (1 not sleepy, 2 sleepy or calm, 3 sleeping)” value ([3]; SipNose device, 3 mg Midazolam)?
Its value is 3.

What about the “Number of Positive Sedations” value ([3]; SipNose device, 3 mg Midazolam, 8 patients) of the same compound?
Its value is 8.

And the “failures in inducing anesthesia” value ([3]; SipNose device)?
Its value is “no failures in 10 patients”.

And the “sleep score (1 not sleepy, 2 sleepy or calm, 3 sleeping)” value ([3]; commercial device (nasal pump), 3 mg Midazolam)?
Its value is “less than 2”.

And the “failures in inducing anesthesia” value ([3]; commercial devices)?
Its value is 2 failures and one partial failure in 6 patients.

And the Adverse events [3, 4]?
The Adverse events was 0.

And the “Level of minimum BIS” value [3, 4]?
The value was 87.5±5.3.

What about the Mean onset time [3, 4] of the same compound?
Its Mean onset time is 6.7 ± 4.6 min.

And the “Minimum BIS excluding failure” value [3, 4]?
Its value is 85.

And the “level of Maximum BIS” value [3, 4]?
The value was 97.

What about the “Number of Positive Sedations” value ([3]; commercial nasal pump, 3 mg Midazolam, 4 patients) of the same compound?
Its value is 3.
